According to US20100279976A1, “USE OF ARTEMISININ AND ITS DERIVATIVES IN CANCER THERAPY” (SHANGHAI INSTITUTES FOR BIOLOGICAL SCIENCES, CAS, priority 2009, published 2010):

Assays:
[1] = tested on: IOSE144 immortalized non-tumorigenic ovarian surface epithelial cells; test: MTT cell viability assay, IOSE144; format: cell-based; settings: Homo sapiens, IOSE-144, IOSE144, 48 hrs
Excerpt: (§1) Human ovarian IOSE144 (immortalized non-tumorigenic human ovarian surface epithelial cells) and ovarian carcinoma (A2780 and OVCAR-3) cells that may be obtained from the American Type Culture Collection (ATCC, Manassas, Va.) are gifts from Dr. Jing Fang (Institute for Nutritional Sciences, Shanghai, China). All cells may be cultured according to the ATCC instructions. The compounds (ARS, ART, ARM and DHA) may be dissolved in DMSO (<0.1%, final concentration).
(§2) The effects of ART derivatives on the viability of the aforementioned cells may be determined using the MTT assay. Briefly, 2,000 cells per well were plated in triplicate in 96-well plates. After a 24-h incubation, the cells may be treated with varying concentrations of ART derivatives (0, 1, 5, 10, 25, 50, and 100 μmol/L) for 48 h. The MTT assay may be performed according to the manufacture's instruction and the resultant formazan crystals may be dissolved in DMSO (100 μL). The absorbance may be then recorded at 540 nm. The effects of ART derivatives on cell viability may be assessed by comparing the percent cell viability of the treated cells with the vehicle (DMSO)-treated control cells, which may be arbitrarily assigned at 100% viability. The experiment may be repeated thrice under the same conditions.

[2] = tested on: 7702 normal human liver cells; test: MTT cell viability assay, normal liver cells; format: cell-based; settings: Homo sapiens, 7702 cells, 48 h; for IC20: read-out: IC20 (concentration that reduces growth by 20%)
Description: as §2

[3] = tested on: OVCAR-3 ovarian carcinoma cells; test: MTT cell viability assay, OVCAR-3; format: cell-based; settings: Homo sapiens, OVCAR-3, 48 hrs
Excerpt: as §1, §2

[4] = tested on: BEL-7404 hepatoma cells (p53 mutant); test: MTT cell viability assay, BEL-7404; format: cell-based; settings: Homo sapiens, BEL-7404 (p53 mutant), 48 h
Description: as §2

[5] = tested on: Huh-7 hepatoma cells (p53 mutant); test: MTT cell viability assay, Huh-7; format: cell-based; settings: Homo sapiens, Huh-7 (p53 mutant), 48 h
Description: as §2

[6] = tested on: A2780 ovarian carcinoma cells; test: MTT cell viability assay, A2780; format: cell-based; settings: Homo sapiens, A2780, 48 hrs
Excerpt: as §1, §2

[7] = tested on: four hepatoma cell lines (HepG2, Hep3B, Huh-7, BEL-7404); test: MTT assay, mean over four hepatoma cell lines; format: cell-based; settings: Homo sapiens, mean of HepG2, Hep3B, read-out: overall mean IC50 in the four hepatoma cell lines
Description: as §2

[8] = tested on: HepG2 hepatoma cells (p53 wild-type); test: MTT cell viability assay, HepG2; format: cell-based; settings: Homo sapiens, 48 h
Description: as §2

[9] = tested on: Hep3B hepatoma cells (p53 null); test: MTT cell viability assay, Hep3B; format: cell-based; settings: Homo sapiens, 48 h
Description: as §2

[10] = tested on: OVCAR-3 cells; test: Annexin V-FITC apoptosis assay, OVCAR-3; format: cell-based, human; settings: OVCAR-3, 24 hrs; DHA 1 μM, CBP 500 μM, alone or combined
Description: ART- and DHA-induced apoptosis alone or in combination with gemcitabine in HepG2 and Hep3B cells or in combination with carboplatin in ovarian cancer cells may be determined by flow cytometry using the Annexin V-FITC Apoptosis Detection kit following the manufacturer's instructions. […] The cells may then be harvested, washed in PBS, and incubated with Annexin V and propidium iodide for staining in binding buffer at room temperature for 10 min in the dark. The stained cells may be analyzed using the FACSAria instrument.

[11] = tested on: OVCAR-3 xenograft tumors; test: OVCAR-3 xenograft model in nude mice; format: in vivo; settings: CBP only, single dose 120 mg/kg on day 0
Description: (§3) Four to six week old female athymic nude mice (BALB/c, nu/nu) may be purchased from Shanghai Experimental Animal Center (Shanghai, China). Animal studies are approved by the Institute for Nutritional Sciences. The tumor xenograft model may be established as follows. Briefly, A2780 and OVCAR-3 cells may be harvested and re-suspended in serum-free RPMI 1640 medium containing 20% (v/v) Matrigel (BD Biosciences, Bedford, Mass., USA). Aliquots of cells (˜5×10^6 cells/0.2 ml) may be injected subcutaneously into the left inguinal area of the mice. The tumor growth and body weight of the mice may be monitored every other day. Tumor mass may be determined. Mice bearing palpable tumors (˜70 mg) may be randomly divided into treatment and control groups n=5 mice/group). CBP may be dissolved in saline, and DHA may be dissolved in cremophor EL:ethanol:saline (5:5:90, v/v/v). DHA may be administered via i.p. injection at doses of 10 and 25 mg/kg/5 days/week for 3 weeks) alone or combined with CBP (at a single dose of 120 mg/kg, once on day 0). The control group receives saline only. Mice may be killed on day 18. Tumors may be carefully excised, trimmed of extraneous fat or connective tissue, and homogenized in RIPA buffer (100 mg tumor tissue/1 ml RIPA) and prepared for immunoblotting analysis as described above.

[12] = tested on: A2780 xenograft tumors; format: in vivo
Description: as §3, with “Briefly, A2780 and OVCAR-3 cells may be harvested and re-suspended in serum-free RPMI 1640 medium containing 20% (v/v) Matrigel (BD Biosciences, Bedford, Mass., USA).” left out

[13] = tested on: HepG2 xenograft tumors; test: HepG2 xenograft model in nude mice; format: in vivo; settings: HepG2 xenograft, gemcitabine alone 80 mg/kg i.p. days 7, 11, 15
Description: Female athymic nude mice (nu/nu; 4-6 wk of age) may be obtained from Shanghai Slac Laboratory Animal Co. Ltd. All animals may be fed with commercial diet and water ad libitum. The human HCC xenograft models in mice may be as follows. Briefly, HepG2 and Hep3B cells may be re-suspended in serum-free DMEM with Matrigel basement membrane matrix at a 5:1 ratio. The cell suspension may then be injected (7×10^6 cells; total volume, 0.2 mL) into the left inguinal area of the BALB/c nude mice. The animals may be monitored for activity and physical condition everyday, and the determination of body weight and measurement of tumor mass may be done every 3 d. Tumor mass may be determined by caliper measurement in two perpendicular diameters of the implant and calculated using the formula ½a×b^2, where a stands for the long diameter and b is the short diameter. The animal use and care protocol is approved by the Institutional Review Board of the Institute for Nutritional Sciences, Chinese Academy of Sciences.
Nude mice bearing HepG2 and Hep3B xenografts, randomly divided into various treatment and control groups (five mice per group), may be treated orally with either ART or DHA suspended in 5% sesame oil+95% saline, at a dose of 50 or 100 mg/kg/d, or a combination of ART or DHA with gemcitabine or with saline (as controls). In the mice receiving combination therapy, 80 mg/kg gemcitabine, representing one fifth of the reported most tolerated dose in mice, may be administered i.p. on days 7, 11, and 15 to avoid possible side effects and to illustrate potential chemo-sensitization effects in this combination regimen.

[14] = tested on: HCC; settings: gemcitabine monotherapy, HCC patients; cited from earlier work

IC50 [3] [µM] | IC50 [4] [µM] | IC50 [5] [µM] | IC50 [6] [µM] | IC50 [7] [µM] | Compound | IC20 [1] [µM] | IC50 [1] [µM] | IC80 [1] [µM] | IC80 [2] [µM] | IC20 [2] [µM] | IC50 [2] [µM] | IC20 [3] [µM] | IC80 [3] [µM] | IC20 [4] [µM] | IC80 [4] [µM] | IC20 [5] [µM] | IC80 [5] [µM] | IC20 [6] [µM] | IC80 [6] [µM] | IC20 [8] [µM] | also measured
38.8 | 31.8 | 31.4 | 53.9 | 42.3 | CO[C@H]1O[C@@H]2O[C@@]3(C)CC[C@H]4[C@H](C)CC[C@@H]([C@H]1C)[C@@]24OO3 [ARM, artemether] | 98 | > 500 | > 500 | > 500 | 7.9 | 492 | 2.08 | > 500 | 2.4 | > 500 | 1.2 | > 500 | 2.08 | > 500 | 2.6 | IC50 [8]: 54.8 µM; IC80 [8]: > 500 µM; IC20 [9]: 2.4 µM; IC50 [9]: 51.5 µM; IC80 [9]: > 500 µM
343 | 15 | 9.22 | > 500 | 21 | C[C@H]1[C@H](OC(=O)CCC(=O)O)O[C@@H]2O[C@@]3(C)CC[C@H]4[C@H](C)CC[C@@H]1[C@@]24OO3 [ARS, artesunate] | > 500 | > 500 | > 500 | > 500 | 7.3 | > 500 | 3.93 | > 500 | 1 | 215 | 0.6 | 146 | 7.68 | > 500 | 1.3 | IC50 [8]: 20.5 µM; IC80 [8]: 338 µM; IC20 [9]: 1.5 µM; IC50 [9]: 39.4 µM; IC80 [9]: > 500 µM
 |  |  |  |  | N.N.O=C([O-])C1(C(=O)[O-])CCC1.[Pt+2] [CBP, carboplatin] |  |  |  |  |  |  |  |  |  |  |  |  |  |  |  | rate of apoptosis (control regarded as 100%) [10]: 528%; tumor growth inhibition [11]: 46%; tumor growth inhibition ([12]; A2780 xenograft, CBP only, single dose 120 mg/kg on day 0): 56%; host toxicity based on observation of body weight ([12]; mice bearing A2780 or OVCAR-3 xenografts): slight weight loss
 |  |  |  |  | Nc1ccn([C@@H]2O[C@H](CO)[C@@H](O)C2(F)F)c(=O)n1 [gemcitabine] |  |  |  |  |  |  |  |  |  |  |  |  |  |  |  | tumor growth inhibition [13]: 34.9%; median survival time [14]: up to 34 weeks
